Assay results as given in patent publication US20220347190A1, “TREATMENT COMPRISING FXR AGONISTS” (Novartis AG, priority 2019, published 2022).
Entries after “also recorded” stand apart in the source; their conditions may differ. Where two headings read alike, the source gives them in different places.

Tests used:
[1] = test system: NASH patients; settings: cited from earlier work
[2] = test system: C57BL/6J mice on HF/NASH diet; experiment: Drug treatment study in mice on HF/NASH diet (Example 1); format: in vivo
Experimental: Studies were performed in compliance with Swiss guidelines for animal experimentation. Adult male C57BLJ6J mice were housed with ad libitum access to water and food. Mice were fed a HF/NASH diet (40 kcal % fat, 2% cholesterol, 40 kcal % carbohydrate, Research Diets, D09100301 or SSniff Special Diets, supplemented with a fructose-sucrose solution (42 g/L, 55% fructose and 45% sucrose by weight) in drinking water).
Total body fat and lean mass were analyzed by a nuclear magnetic resonance (NMR) and liver fat was measured by magnetic resonance imaging (MRI). […] Dietary intervention studies: mice fed a HF/NASH diet for 8 weeks were switched to normal diet (ND and water) for 12 weeks.
Drug treatment studies: mice exposed to HF/NASH diet for 20 weeks were treatment with LJP305 (1 mg/kg), GS-0976 (10 mg/kg) or vehicle (0.5% methylcellulose, 0.5% Tween 80 in water) p.o. once daily for 12 weeks while remaining on HF/NASH diet. At the end of the studies, blood and tissue samples were collected for analyses.
Liver samples were analyzed for collagen (Quickzyme), lipids and triglycerides (Cayman). Relative gene expression was calculated by normalizing Ct values of genes of interest against 18s (liver) or Idh3b (fat, ileum). Serum TIMP-1 (R&D Systems Inc.), PIII-NP (N-terminal procollagen III propeptide) (Cusabio Biotech Co.), α-fetoprotein (R&D Systems Inc.), leptin, and adiponectin (Meso Scale Discovery) were measured.
Paraffin-embedded tissue was stained with hematoxylin/eosin (H&E) and picrosirius red. IBA1 (ionized calcium-binding adapter molecule 1)-positive crown-like structures (Abcam, ab178846), Ly6b (BioRad, MCA771), UCP-1 (Abcam, ab109839) or ZO-1 (Invitrogen, 14-9776-80) were stained (Ventana Discovery XT) followed by digital (Aperio ScanScope XT, Leica Biosystems) and automated image analysis (HALO, Indica Labs).

[3] = test system: healthy volunteers; settings: cited from earlier work
[4] = test system: patients with biopsy-proven NASH and fibrosis stages 2-3
Text: Prespecified endpoints assessed at week 12 included overall safety and changes in alanine aminotransferase (ALT), hepatic fat fraction (HFF), gamma glutamyl transferase (GGT), and body weight.

[5] = test system: NASH patients
[6] = test system: NASH patients; settings: cited from earlier work; remark: listed apart in the source
[7] = GS-0976 10 mg/kg p.o. once daily for 12 weeks, HF/NASH diet

SMILES: COc1ccccc1[C@H](Cn1c(=O)n(C(C)(C)C(=O)O)c(=O)c2c(C)c(-c3ncco3)sc21)OC1CCOCC1 [GS-0976, 2-[1-{(2R)-2-(2-methoxyphenyl)-2-[(oxan-4-yl)oxy]ethyl}-5-methyl-6-(1,3-oxazol-2-yl)-2,4-dioxo-1,4-dihydrothieno[2,3-d]pyrimidin-3(2H)-yl]-2-methylpropanoic acid]
- plasma triglycerides (TG) ([1]; NASH patients): Hypertriglyceridemia; also recorded: elevated plasma triglycerides
- steatosis and MRI-PDFF in NASH subjects ([1]; NASH subjects): improve steatosis and improvements in MRI-PDFF
- liver fat, serum TIMP-1 and liver injury ([1]; clinical phase 2 NASH studies, 12 weeks): reductions in liver fat, serum TIMP-1, and liver injury
- elevation of circulating leptin levels vs vehicle [2, 7]: 2 fold
- increase in total fat mass vs vehicle [2, 7]: 27%
- increase in visceral and subcutaneous fat vs vehicle [2, 7]: 30%
- mean body weight above vehicle-treated mice ([2]; GS-0976 10 mg/kg p.o. once daily, end of 12-week treatment, HF/NASH diet): 7%
- liver gene expression (lipid metabolism genes) ([2]; GS-0976 10 mg/kg, liver transcriptome): induced multiple genes known to play roles in lipid metabolism
- effect on blood triglycerides and peripheral obesity ([2]; NASH mice, 12-week treatment): elevated blood triglycerides and peripheral obesity
- body weight effect (in words) ([2]; chronic treatment, HF/NASH diet, vs vehicle): significant increase in body weight
- effect of therapeutic treatment on established NASH with fibrosis ([2]; p.o. once daily for 12 weeks after 20 weeks of HF/NASH diet): resolved established NASH with fibrosis

SMILES: COc1cc(C(=O)N2CCC3(CC2)CC(=O)c2cc(-c4cncc(C(=O)O)c4)ccc2O3)cc2c1c(C)cn2C1CC1 [MK-4704]
- plasma triglycerides [3]: Hypertriglyceridemia

SMILES: O=C(O)c1cc(F)c2nc(N3C4CCC3CC(OCc3c(-c5ccccc5OC(F)(F)F)noc3C3CC3)C4)sc2c1 [Tropifexor, 2-[(1R,3r,5S)-3-({5-cyclopropyl-3-[2-(trifluoromethoxy)phenyl]-1,2-oxazol-4-yl}methoxy)-8-azabicyclo[3.2.1]octan-8-yl]-4-fluoro-1,3-benzothiazole-6-carboxylic acid]
- frequency of serious adverse events ([4]; 140 μg and 200 μg vs placebo): low and comparable across groups
- low density lipoprotein-cholesterol (LDL-C) ([4]; 140 μg and 200 μg, 12 weeks): dose-related increase
- treatment discontinuation rate due to pruritus ([4]; Tropifexor 140 μg): 2%
- ALT, LS mean absolute change (SE) from baseline to Week 12 ([4]; Tropifexor 140 μg once daily): −20.1 (4.57) U/L
- Body weight, LS mean absolute change (SE) from baseline to Week 12 ([4]; Tropifexor 140 μg once daily): −2.46 (0.38) kg
- GGT, LS mean absolute change (SE) from baseline to Week 12 ([4]; Tropifexor 140 μg once daily): −39.2 (3.70) U/L
- pre-specified endpoints at week 12 ([4]; Tropifexor 200 μg): Pre-specified endpoints were met
- treatment discontinuation rate due to pruritus ([4]; Tropifexor 200 μg): 6%
- ALT, LS mean absolute change (SE) from baseline to Week 12 ([4]; Tropifexor 200 μg once daily): −23.6 (4.48) U/L
- Body weight, LS mean absolute change (SE) from baseline to Week 12 ([4]; Tropifexor 200 μg once daily): −3.20 (0.37) kg
- GGT, LS mean absolute change (SE) from baseline to Week 12 ([4]; Tropifexor 200 μg once daily): −40.9 (3.62) U/L
- share of patients with pruritus whose events were of mild (Grade 1) severity ([4]; both Tropifexor groups (140 μg and 200 μg)): > 60%
- ALT, HFF and body weight after 12 weeks (in words) ([4]; higher doses (140 μg and 200 μg)): robust and dose-dependent decreases
- efficacy based on biomarkers at Week 12 ([5]; 60 and 90 μg): anti-inflammatory and anti-steatotic efficacy
- tolerability ([5]; up to 90 μg daily): generally well tolerated up to 90 μg daily without safety signals

SMILES: CC[C@H]1[C@@H](O)[C@@H]2[C@H](CC[C@]3(C)[C@@H]([C@H](C)CCC(=O)O)CC[C@@H]23)[C@@]2(C)CC[C@@H](O)C[C@@H]12 [obeticholic acid, 6α-ethyl-chenodeoxycholic acid]
- adverse effects of long term administration [6]: associated with pruritus and lipid abnormalities
